Where two headings read alike, the source gives them in different places.

Experiment [1] has as its system hepatitis B virus surface antigen (HBs). Description: Hepatitis-vaccine enhancing activity (adjuvant activity): anti-HBs IgG in mouse serum by ELISA. Particulars: Experiment 1, 5000-fold dilution. Format: in vivo, female CDF1 mice. Put shortly: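 Female CDF1 mice (n=7) given 0.2 ml i.p. of compound in lipid microspheres (1 mg/ml) mixed 1:1 with HBs antigen (50 μg/ml), boosted identically at 3 weeks. Sera from weekly fundus bleeds before and after boost. Anti-HBs IgG measured by ELISA.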
(In general: In an ELISA, binding on a coated surface is turned into a signal by an enzyme label.)

For experiment [2], the system named is influenza HA vaccine (B/Nagasaki/1/87 strain). It is filed as in vivo, female CDF1 mice. Particulars: Experiment 1, 5000-fold dilution.
Experiment [3] relates to L-1210 mouse leukemia cells. Description: Activation of macrophages (growth inhibition of tumor cells by intraperitoneal macrophages of treated mice, MTT assay). It is filed as cell-based. Particulars: macrophages taken 3 days after i.p. 0.2 ml of 500 μg/ml, macrophage:L-1210 20:1, 72 hours. How it is done: A compound of the present invention was dissolved in lipidmicrosphere to obtain a solution in a concentration of 500μg/ml, and 0.2 ml of such solution was intraperitoneally administered to each mouse in one group consisting of seven female CDF1 mice. Intraperitoneal macrophages obtained three days after the administration and L-1210 mouse leukemia cells were mixed in the ratio of cell numbers of 20:1, respectively. Two hundred μl of the mixture was placed in each well of one sheet of 96 well microtiter plate. After 72 hours, the increase of the cell number in each well was determined by a MTT assay method. The ratio of the cell number for the mixture of the L-1210 cells and the macrophage relative to the cell number for the L-1210 cells only(growth inhibitory ratio) was determined, and the results are shown in Table 3.

The mark [4] stands for this setting: 1 W after i.p. administration, compound in lipidmicrosphere + HBs.
[5] abbreviates: 4 W (after secondary stimulation at 3 weeks).
Where [6] appears, read: 5 W (after secondary stimulation at 3 weeks).
The mark [7] stands for this setting: 1 W after i.p. administration, compound in lipidmicrosphere + HA vaccine.

On to `CCCCCCCCCCCCCCCCCC(=O)OC[C@H]1O[C@@H](SC(=O)C[C@@H](CCCCCCCCCCC)OC(=O)CCCCCCCCCCCCC)[C@H](NC(C)=O)[C@@H](O[C@H](C)C(=O)N[C@@H](C)C(=O)N[C@H](CCC(=O)OC)C(N)=O)[C@@H]1O` [Example 16, N-[2-0-{2-Acetamido-2,3-dideoxy-6-0-octadecanoyl-1-S-((3R)-3-tetradecanoyloxytetradecanoyl)-1-thio-β-D-glucopyranos-3-yl}-D-lactoyl]-L-alanyl-D-isoglutamine methylester], for which the “Anti-HBs IgG antibody level in serum (ELISA absorbance at 415 nm)” value (“Anti-HBs IgG antibody level in serum” for short) in experiment [1] (setting [4]) is on record as 0 O.D 415 nm; in experiment [1] (2 W) it was 0.079 ± 0.004 O.D 415 nm; in experiment [1] (3 W), 0.103 ± 0.004 O.D 415 nm; in experiment [1] (setting [5]), 0.850 ± 0.008 O.D 415 nm; in experiment [1] (setting [6]), 0.903 ± 0.021 O.D 415 nm. Moreover, the “Anti HA serum antigen value (average value ± S.D.)” value (shortened to “Anti HA serum antigen value”) in experiment [2] (setting [7]) was 0.001 ± 0.001 O.D 415 nm; in experiment [2] (2 W), 0.145 ± 0.004 O.D 415 nm; in experiment [2] (3 W) it was 0.257 ± 0.010 O.D 415 nm; in experiment [2] (setting [5]), 1.251 ± 0.010 O.D 415 nm; in experiment [2] (setting [6]) it was 1.262 ± 0.026 O.D 415 nm. The “Growth inhibitory ratio of L-1210 mouse leukemia cells” value (shortened to “Growth inhibitory ratio”) in experiment [3] worked out at 76.3%.

Consider `CCCCCCCCCCCCCC(=O)O[C@H](CCCCCCCCCCC)CC(=O)O[C@H]1O[C@H](COC(=O)CCCCCCCCC)[C@@H](O)[C@H](O[C@H](C)C(=O)N[C@@H](C)C(=O)N[C@H](CCC(=O)OC)C(N)=O)[C@H]1NC(C)=O` [Example 11, N-[2-0-{2-Acetamido-2,3-dideoxy-6-0-decanoyl-1-0((3R)-3-tetradecanoyloxytetradecanoyl)-α-D-glucopyranos-3-yl}-D-lactoyl]-L-alanyl-D-isoglutaminemethylester], for which the “Anti-HBs IgG antibody level in serum” value is recorded as 0.010 ± 0.002 O.D 415 nm in experiment [1] (setting [4]); 0.083 ± 0.002 O.D 415 nm in experiment [1] (2 W); 0.124 ± 0.003 O.D 415 nm in experiment [1] (3 W); 0.602 ± 0.009 O.D 415 nm in experiment [1] (setting [5]); 0.716 ± 0.020 O.D 415 nm in experiment [1] (setting [6]). In addition, the “Anti HA serum antigen value” value in experiment [2] (setting [7]) was determined as 0 O.D 415 nm; in experiment [2] (2 W) it was 0.073 ± 0.000 O.D 415 nm; in experiment [2] (3 W), 0.160 ± 0.005 O.D 415 nm; in experiment [2] (setting [5]), 1.059 ± 0.016 O.D 415 nm; in experiment [2] (setting [6]) it was 1.050 ± 0.003 O.D 415 nm. Besides, the “Growth inhibitory ratio” value in experiment [3] was 59.7%.

For the compound `CCCCCCCCCCCCCC(=O)O[C@H](CCCCCCCCCCC)CC(=O)S[C@@H]1O[C@H](COC(=O)CCCCCCCCC)[C@@H](O)[C@H](O[C@H](C)C(=O)N[C@@H](C)C(=O)N[C@H](CCC(=O)OC)C(N)=O)[C@H]1NC(C)=O` [Example 14, N-[2-0-{2-Acetamido-2,3-dideoxy-6-0-decanoyl-1-S-((3R)-R-tetradecanoyloxytetradecanoyl)-1-thio-β-D-glucopyranos-3yl}-D-lactoyl]-L-alanyl-D-isoglutamine methylester], the “Anti-HBs IgG antibody level in serum” value in experiment [1] (setting [4]) was found to be 0 O.D 415 nm; in experiment [1] (2 W), 0.071 ± 0.000 O.D 415 nm; in experiment [1] (3 W), 0.104 ± 0.003 O.D 415 nm; in experiment [1] (setting [5]), 0.784 ± 0.022 O.D 415 nm; in experiment [1] (setting [6]), 0.846 ± 0.024 O.D 415 nm. For the same compound, the “Anti HA serum antigen value” value is listed as 0 O.D 415 nm in experiment [2] (setting [7]); 0.110 ± 0.003 O.D 415 nm in experiment [2] (2 W); 0.186 ± 0.007 O.D 415 nm in experiment [2] (3 W); 0.974 ± 0.006 O.D 415 nm in experiment [2] (setting [5]); 0.954 ± 0.002 O.D 415 nm in experiment [2] (setting [6]). Also, in experiment [3], the “Growth inhibitory ratio” value amounted to 96.4%.

With `CCCCCCCCCCCCCC(=O)OC[C@H]1O[C@@H](SC(=O)C[C@@H](CCCCCCCCCCC)OC(=O)CCCCCCCCCCCCC)[C@H](NC(C)=O)[C@@H](O[C@H](C)C(=O)N[C@@H](C)C(=O)N[C@H](CCC(=O)OC)C(N)=O)[C@@H]1O` [Example 15], the “Anti-HBs IgG antibody level in serum” value in experiment [1] (setting [4]) was 0 O.D 415 nm; in experiment [1] (2 W), 0.085 ± 0.002 O.D 415 nm; in experiment [1] (3 W), 0.129 ± 0.001 O.D 415 nm; in experiment [1] (setting [5]), 0.788 ± 0.008 O.D 415 nm; in experiment [1] (setting [6]), 0.905 ± 0.020 O.D 415 nm. Further, the “Anti HA serum antigen value” value in experiment [2] (setting [7]) worked out at 0.007 ± 0.000 O.D 415 nm; in experiment [2] (2 W), 0.119 ± 0.005 O.D 415 nm; in experiment [2] (3 W) it was 0.218 ± 0.006 O.D 415 nm; in experiment [2] (setting [5]) it was 1.249 ± 0.013 O.D 415 nm; in experiment [2] (setting [6]), 1.262 ± 0.017 O.D 415 nm. Besides, the “Growth inhibitory ratio” value in experiment [3] is 87.5%.

`CCCCCCCCCCCCCCC(CCCCCCCCCCCCCC)C(=O)S[C@@H]1O[C@H](COC(=O)CCCCCCCCCCCCC)[C@@H](O)[C@H](O[C@H](C)C(=O)N[C@@H](C)C(=O)N[C@H](CCC(=O)OC)C(N)=O)[C@H]1NC(C)=O` [Example 9, N-[2-0-{2-Acetamido-2,3-dideoxy-6-0-tetradecanoyl-1-S-(2-tetradcylhexadecanoyl)-1-thio-β-D-glucopyranos-3-yl}-D-lactoyl]-L-alanyl-D-isoglutamine methylester]: the “Anti-HBs IgG antibody level in serum” value in experiment [1] (setting [4]) is 0.014 ± 0.002 O.D 415 nm; in experiment [1] (2 W), 0.092 ± 0.003 O.D 415 nm; in experiment [1] (3 W), 0.149 ± 0.001 O.D 415 nm; in experiment [1] (setting [5]), 0.681 ± 0.012 O.D 415 nm; in experiment [1] (setting [6]), 0.702 ± 0.006 O.D 415 nm. Besides, the “Anti HA serum antigen value” value turned out to be 0.019 ± 0.002 O.D 415 nm in experiment [2] (setting [7]); 0.168 ± 0.005 O.D 415 nm in experiment [2] (2 W); 0.392 ± 0.006 O.D 415 nm in experiment [2] (3 W); 1.342 ± 0.005 O.D 415 nm in experiment [2] (setting [5]); 1.329 ± 0.026 O.D 415 nm in experiment [2] (setting [6]). Besides, the “Growth inhibitory ratio” value in experiment [3] worked out at 58.5%.

These data come from patent US5075287A, “Muramyl peptide derivatives and immunoregulating compositions containing them” (priority 1989, dated 1991).
